# Results as given in ChEMBL document CHEMBL1201862, “PubChem BioAssay data set” (2004).
#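 96-well plates; 48 h exposure; 5 concentrations. Endpoints by linear interpolation between flanking doses. Not reached: highest tested concentration assigned. The concentration for 50% growth inhibition is given as GI50.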 Calls of active or inactive are those of the source. Rule as the data show it: active = GI50 up to about 1.1 µM and inactive = higher. Non-standard residues stand in square brackets, D forms with d. Residues, ends and D or L forms follow the SMILES beside them. *: point of attachment. Cbz = O=C(OCc1ccccc1)*; Boc = CC(C)(C)OC(=O)*; Aib = CC(C)(N)C(=O)O; OBn = c1ccc(CO*)cc1; OtBu = CC(C)(C)O*; βAla = NCCC(=O)O
# How the values were obtained:
# Experiment in all cases: NCI-60 cell line screen, 48 h
# NCI-H226 = test system: NCI-H226
# MDA-MB-435 = test system: MDA-MB-435
# ACHN = test system: ACHN
# SK-MEL-5 = test system: SK-MEL-5
# NCI-H23 = test system: NCI-H23
# SF-295 = test system: SF-295
# SR = test system: SR
# HCT-15 = test system: HCT-15
# TK-10 = test system: TK-10
# OVCAR-3 = test system: OVCAR-3
# A549 = test system: A549
# MDA-MB-231 = test system: MDA-MB-231
# 786-0 = test system: 786-0
# DU-145 = test system: DU-145
# COLO 205 = test system: COLO 205
# UO-31 = test system: UO-31
# HCC 2998 = test system: HCC 2998
# SK-MEL-2 = test system: SK-MEL-2
SMILES,GI50 (NCI-H226),GI50 (MDA-MB-435),GI50 (ACHN),GI50 (SK-MEL-5),GI50 (NCI-H23),GI50 (SF-295),GI50 (SR),GI50 (HCT-15) [µM],GI50 (TK-10),GI50 (OVCAR-3),GI50 (A549),GI50 (MDA-MB-231),GI50 (786-0),GI50 (DU-145),GI50 (COLO 205),GI50 (UO-31),GI50 (HCC 2998),GI50 (SK-MEL-2)
CC(C)(C)OC(=O)CC(NC(=O)OC(C)(C)C)C(=O)NC(CCCCNC(=O)OCc1ccccc1)C(=O)NC(C)(C)C(=O)NCCC(=O)OCc1ccccc1 (stereo unspecified) (Boc-D(OtBu)K(Cbz)[Aib][βAla]-OBn; configuration not given here),> 100 µM (inactive),> 100 µM (inactive),> 100 µM (inactive),> 100 µM (inactive),> 100 µM (inactive),> 100 µM (inactive),> 100 µM (inactive),> 100,> 100 µM (inactive),> 100 µM (inactive),> 100 µM (inactive),> 100 µM (inactive),> 100 µM (inactive),> 100 µM (inactive),> 100 µM (inactive),> 100 µM (inactive),,
COc1cc(-c2oc3c(OC)cc(OC)c(O)c3c(=O)c2OC)cc(OC)c1OC,> 100 µM (inactive),> 100 µM (inactive),8.49 µM (inactive),20.7 µM (inactive),36.3 µM (inactive),2.59 µM (inactive),> 100 µM (inactive),,> 100 µM (inactive),4.79 µM (inactive),> 100 µM (inactive),2.84 µM (inactive),4.02 µM (inactive),32.7 µM (inactive),> 100 µM (inactive),33 µM (inactive),> 100 µM (inactive),
COCC#C[C@@]1(O)CCCCC1CC(OC)OC (stereo partly specified),> 100 µM (inactive),62.7 µM (inactive),> 100 µM (inactive),> 100 µM (inactive),> 100 µM (inactive),> 100 µM (inactive),40.3 µM (inactive),76.2,> 100 µM (inactive),,> 100 µM (inactive),> 100 µM (inactive),> 100 µM (inactive),> 100 µM (inactive),> 100 µM (inactive),> 100 µM (inactive),> 100 µM (inactive),> 100 µM (inactive)
CCN(CC)CCOc1ccc(N2C(=O)c3cccc4cc([N+](=O)[O-])cc(c34)C2=O)cc1,3.79 µM (inactive),11.5 µM (inactive),3.1 µM (inactive),12.1 µM (inactive),11.6 µM (inactive),6.55 µM (inactive),0.372 µM (active),6.64,13.3 µM (inactive),,0.977 µM (active),18.8 µM (inactive),4.76 µM (inactive),10.8 µM (inactive),10 µM (inactive),9.12 µM (inactive),11.6 µM (inactive),16.3 µM (inactive)
